{
  "source": "paper PMC11672292",
  "about": "“Discovery of Balasubramide Derivative with Tissue‐Specific Anti‐Inflammatory Activity Against Acute Lung Injury by Targeting VDAC1” (Advanced Science, 2024)",
  "key": {"VDAC1": {"target": "T1, VDAC1 (Mus musculus, UniProt Q60932)", "T1 construct": "endogenous in cells; host or cells: RAW264.7", "T1 sequence (Q60932 14-296)": "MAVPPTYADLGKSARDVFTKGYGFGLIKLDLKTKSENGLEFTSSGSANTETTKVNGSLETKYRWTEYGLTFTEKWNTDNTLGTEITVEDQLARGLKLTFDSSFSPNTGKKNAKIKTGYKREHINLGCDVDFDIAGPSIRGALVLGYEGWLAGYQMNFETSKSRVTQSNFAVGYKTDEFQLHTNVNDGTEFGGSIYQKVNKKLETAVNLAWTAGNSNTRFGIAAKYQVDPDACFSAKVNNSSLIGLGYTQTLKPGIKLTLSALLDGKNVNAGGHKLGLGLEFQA", "assay": "Cellular thermal shift assay (CETSA) in RAW264.7 cells", "type": "binding", "conditions": "20 µM, versus DMSO", "procedure": "(§1) For CETSA experiments, RAW264.7 cells were incubated with DMSO or (+)3C‐20 (20 µM) in DMEM for 3 h at standard culture conditions. After washed twice with PBS, the cells were collected and divided equally into 12 groups using PBS containing protease and phosphatase inhibitor cocktail. All the samples were heated in a module with pre‐set temperature (37–81 °C) for 3 min, and balanced at 25 °C for another 3 min. Samples were freeze‐thawed with liquid nitrogen three times to completely lyse cells. The 60 µL supernatant containing soluble protein was isolated by centrifugation (13 800 × g, 20 min, 4 °C), mixed with 20 µL laemmli buffer (4 ×), and heated for 10 min at 95 °C. Eventually, the samples were separated by 10% SDS‐PAGE gels for immunoblotting analysis. For ITDRF experiments, the procedures and details were similar to CETSA experiments. In brief, the RAW264.7 cells were seeded in 6‐well plates, incubated with different concentrations of (+)3C‐20, and heated at a designed temperature."}, "VDAC2": {"target": "T2, VDAC2 (Mus musculus, UniProt Q60930)", "T2 construct": "endogenous in cells; host or cells: RAW264.7", "T2 sequence (Q60930 1-295)": "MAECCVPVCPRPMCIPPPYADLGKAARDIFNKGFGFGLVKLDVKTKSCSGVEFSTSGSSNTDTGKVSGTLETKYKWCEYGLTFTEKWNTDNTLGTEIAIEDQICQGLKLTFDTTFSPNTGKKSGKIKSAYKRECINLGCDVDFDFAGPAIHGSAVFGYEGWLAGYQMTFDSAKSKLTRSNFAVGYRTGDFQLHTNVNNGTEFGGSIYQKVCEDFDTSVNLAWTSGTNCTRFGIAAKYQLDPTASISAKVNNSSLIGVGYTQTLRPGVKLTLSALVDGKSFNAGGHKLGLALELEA", "assay": "Cellular thermal shift assay (CETSA) in RAW264.7 cells", "type": "binding", "conditions": "20 µM", "procedure": "as §1"}, "mice": {"test_system": "mice", "assay": "Subacute toxicity, 28 consecutive days of administration", "type": "in vivo"}, "sepsis-induced ALI mice": {"test_system": "sepsis-induced ALI mice", "assay": "Sepsis-induced acute lung injury (ALI) model (i.p. LPS)", "type": "in vivo, mouse", "procedure": "For sepsis‐induced ALI model, C57BL/6J mice were randomly divided into five experimental groups (n = 8–9) according to weight, including control group (PBS+Vehicle), vehicle group (LPS+Vehicle), Dexamethasone treated group (LPS+DEX at 5 mg kg^−1), (+)3C‐20 treated group (LPS+3C‐20 at 10 mg kg^−1 or 50 mg kg^−1). All mice were weighed and intraperitoneally administered DEX, (+)3C‐20 (dissolved in vehicle solution) or vehicle (5% DMSO, 20% BASF Kolliphor HS15, 75% Saline) daily for 3 consecutive days with the determined injection volume (10 mL kg^−1). After the third administration, except for the control group, mice were intraperitoneally injected with LPS (10 mg kg^−1, 10 mL kg^−1) dissolved in PBS 2 h after vehicle or compound pretreatment. […]\nAfter mice were sacrificed, the left lung tissue fixed with 4% paraformaldehyde was embedded in paraffin, cut into 5 µm thick sections, and stained with hematoxylin and eosin. The slices were scanned with light microscopy (BX53, Olympus, Japan) to evaluate gross morphology and lung damage and inflammation, then the alveolar cells area of the image obtained was calculated with Image J 1.51 (NIH, USA), and the histopathological lung injury scores were determined as previously reported.^[ [62] ^]"}, "[1]": {"test_system": "intratracheal LPS-induced ALI mice", "assay": "Intratracheal instillation of LPS-induced ALI model", "type": "in vivo, mouse", "procedure": "The intratracheal instillation of the LPS‐induced ALI model in mice has been previously validated.^[ [60], [61] ^] […] The injection volume of all groups was 10 mL kg^−1. […] The mice were fixed in dorsal recumbency, then the skins and muscles of the mice were separated to expose the tracheal after disinfection. Subsequently, mice were intratracheally injected with 50 µL LPS (20 mg kg^−1) or PBS into the lung through tracheal cartilage rings by using insulin syringes and observed after stitching up the muscles and skins. At 6 h after LPS injection, mice were euthanized to collect samples required for subsequent experiments.\nAfter mice were sacrificed, the left lung tissue fixed with 4% paraformaldehyde was embedded in paraffin, cut into 5 µm thick sections, and stained with hematoxylin and eosin.\nMice were stimulated and treated as indicated in experiments and the lung was lavaged three times through the trachea with 500 µL pre‐chilled PBS buffer. The fluids were merged and centrifuged at 600 × g for 10 min. The supernatant was collected to measure total protein using the BCA kit and for pro‐inflammatory cytokines detection by ELISA described above, and cell pellets after centrifugation were resuspended in FACS buffer (PBS with 1% FBS). […] Finally, the samples were washed twice with FACS buffer and analyzed with Cytoflex S (Beckman coulter, USA)"}, "[2]": {"target": "T3, VDAC1 oligomerization in LPS-primed BMDMs (Mus musculus, UniProt Q60932)", "T3 construct": "endogenous in cells; host or cells: primary bone marrow-derived macrophages (BMDMs) from C57BL/6J mice", "T3 sequence (Q60932 14-296)": "as the sequence (Q60932 14-296) above", "assay": "VDAC1 cross-linking (oligomerization) assay", "type": "cell-based", "conditions": "DSS cross-linking, immunoblotting", "procedure": "The cells (BMDM, iBMDM, RAW264.7, and HEK293T) treated with (+)3C‐20 were washed twice by PBS and lysed in RIPA. The lysate was incubated for 30 min at 30 °C with the cross‐linking reagent DSS (1 mM), mixed with 4 × laemmli buffer with DTT, subjected to SDS‐PAGE and immunoblotting analyzed with anti‐VDAC1 antibody."}},
  "data": [
    {"smiles": "O=C(CCc1ccc(C(F)(F)F)cc1)O[C@@H]1C(=O)NCCc2c([nH]c3ccccc23)[C@H]1c1ccc(C(F)(F)F)cc1", "note": "[(+)3C-20]", "values": [
      {"measurement": "thermal stabilization of VDAC1 (CETSA)", "setting": "VDAC1", "value": "significant thermal stabilization"},
      {"measurement": "thermal stability of VDAC2 (CETSA)", "setting": "VDAC2", "value": "did not improve the thermal stability"},
      {"measurement": "effects on the liver (AST, ALT)", "setting": "mice; 50 mg kg^−1, 28 days", "value": "no harmful effects"},
      {"measurement": "changes in body weight or relative organ weight", "setting": "mice; 28 consecutive days of administration, 50 mg/kg", "value": "did not observe any harmful changes"},
      {"measurement": "secretion of TNF-α in serum", "setting": "sepsis-induced ALI mice; i.p. 10 or 50 mg kg^−1, 3 days pretreatment, LPS 10 mg kg^−1 i.p.", "value": "dose‐dependently decreased"},
      {"measurement": "histopathological damage of lung (H&E)", "setting": "sepsis-induced ALI mice; pretreated at 10 or 50 mg kg^−1, versus vehicle group", "value": "less histopathological damage"},
      {"measurement": "therapeutic effect in H&E lung histology", "setting": "[1]; 50 mg kg^−1, compared to dexamethasone 5 mg kg^−1", "value": "better therapeutic effect"},
      {"measurement": "survival rate of mice", "setting": "[1]; after intratracheal instillation of LPS, 72 h observation, versus vehicle group", "value": "increased the survival rate"},
      {"measurement": "lung index (lung organ coefficient)", "setting": "[1]; mice, 50 mg kg^−1 i.p., LPS 20 mg kg^−1 i.t.", "value": "reverse the upregulation of lung index"},
      {"measurement": "lung wet/dry ratio", "setting": "[1]; pre-treatment at 50 mg kg^−1, LPS 20 mg kg^−1 i.t.", "value": "significantly reduced"},
      {"measurement": "VDAC1 oligomerization", "setting": "[2]", "value": "inhibit VDAC1 oligomerization in a dose‐dependent manner"}
    ]}
  ]
}
